Laboratory results from patent US7928060B2, “Amylin family polypeptide-6 (AFP-6) analogs and methods of making and using them” (Amylin Pharmaceuticals, Inc., priority 2004, dated 2011).

Columns and labels:
calcitonin receptor = biological target: T1, calcitonin receptor (Homo sapiens, UniProt P30988); assay: cAMP production in T47D cells (AlphaScreen)
T1 sequence (P30988 25-474): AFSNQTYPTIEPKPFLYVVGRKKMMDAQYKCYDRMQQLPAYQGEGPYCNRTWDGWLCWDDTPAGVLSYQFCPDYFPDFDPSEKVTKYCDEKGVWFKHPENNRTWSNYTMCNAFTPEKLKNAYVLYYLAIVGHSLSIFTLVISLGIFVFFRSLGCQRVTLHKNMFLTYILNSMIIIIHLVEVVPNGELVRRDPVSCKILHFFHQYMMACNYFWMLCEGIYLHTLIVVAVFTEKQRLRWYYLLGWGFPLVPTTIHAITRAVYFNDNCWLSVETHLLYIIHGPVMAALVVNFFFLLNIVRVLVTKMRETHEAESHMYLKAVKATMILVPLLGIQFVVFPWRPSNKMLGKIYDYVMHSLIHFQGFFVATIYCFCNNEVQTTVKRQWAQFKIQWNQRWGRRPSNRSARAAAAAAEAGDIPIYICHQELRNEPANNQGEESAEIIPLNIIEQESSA
Source text: Data from three exemplary independent alpha screen assays are summarized with EC50 values calculated in PRISM.

adrenomedullin receptor = adrenomedullin receptor (Homo sapiens, UniProt O60895+Q16602); assay: cAMP production in HUVECs (AlphaScreen); format: cell-based; parameters: tested for bioactivity in HUVECs that contain the adrenomedullin receptor; endogenous in cells; host or cells: HUVEC
[1] = test system: Harlan Sprague Dawley rats; assay: gastric emptying rate in conscious rats (3H-glucose gavage); format: in vivo, rat; details: subcutaneous
Method: Male Harlan Sprague Dawley® rats, 237-317 g, were housed with a 12:12 hour light:dark cycle. The experiment was carried out during the light cycle. At time=0 min, test peptide (amylin or AFP-6) at 6.3, 20, 63, 200, 632, and 1122 μg/kg or vehicle was injected (subcutaneous) into conscious rats (n=6/group). At t=5 min, a solution of 1 mL sterile water containing 5 μCi D-[3-^3H] glucose was gavaged by oropharyngeal tube to conscious rats. Blood samples were collected 30 min after gavage and assayed for counts per minute (CPM) in plasma. 20% benzocaine liquid topical anesthetic was used to eliminate pain during sampling. (Gedulin et al. (1995) Gastroenterology 108:A604). The appearance of counts in plasma is a reflection of the rate of gastric emptying. Significance of difference (p<0.05) was determined by ANOVA.

rats = assay: telemetry of cardiovascular parameters in conscious rats; format: in vivo, rat; details: 10 nmol/kg intravenous
Source text: Telemetry allows for real-time hemodynamic readings including arterial pressure, heart rate, arterial dP/dt, ECG (with waveform intervals) and core temperature via an implanted radio transmitter in conscious, non-anesthetized, unrestrained rats. […] Remote intravenous dosing is achieved through in-dwelling vascular access ports.

amylin receptors = biological target: T2, amylin receptors (Rattus norvegicus, UniProt P32214); assay: amylin radioligand binding assay (125I-rat amylin, nucleus accumbens membranes); details: FIG. 10
T2 construct: This basal forebrain tissue, containing the nucleus accumbens and surrounding regions, was weighed and homogenized; from tissue; host or cells: rat basal forebrain (nucleus accumbens) membranes, male Sprague-Dawley rats
T2 sequence (P32214 25-516): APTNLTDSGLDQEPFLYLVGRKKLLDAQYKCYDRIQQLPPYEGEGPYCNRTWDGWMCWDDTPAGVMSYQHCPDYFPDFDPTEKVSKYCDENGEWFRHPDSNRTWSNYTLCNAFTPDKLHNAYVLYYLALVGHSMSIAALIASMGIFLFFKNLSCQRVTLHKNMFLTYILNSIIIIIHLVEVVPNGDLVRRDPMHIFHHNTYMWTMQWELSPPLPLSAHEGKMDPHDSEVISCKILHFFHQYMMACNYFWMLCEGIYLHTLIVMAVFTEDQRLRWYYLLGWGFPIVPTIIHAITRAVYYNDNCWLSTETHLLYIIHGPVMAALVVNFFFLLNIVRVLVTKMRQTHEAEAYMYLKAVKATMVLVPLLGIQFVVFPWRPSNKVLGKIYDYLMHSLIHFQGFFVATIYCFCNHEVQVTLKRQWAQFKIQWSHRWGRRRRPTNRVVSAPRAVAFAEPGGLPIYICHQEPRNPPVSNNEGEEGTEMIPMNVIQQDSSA
Outline: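 Membranes from male Sprague-Dawley rat brain region rostral to hypothalamus, washed and resuspended in 20 mM HEPES with 0.2 mM PMSF. Incubation 60 min at 2 C, then filtration with cold PBS washes.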

NIH/Swiss mice = assay: acute food intake assay in overnight-fasted mice, IP injection; format: in vivo, mouse
Method: The effect of AFP-6 on food intake was investigated using an acute food intake assay. This assay measured food consumption in lean, group-housed, overnight-fasted NIH/Swiss mice. 12 mice were housed 3 to a cage. The sample compound, in this case AFP-6, was injected IP in mice and food intake was measured during the next 2-hours. Decreased, as well as increased, food intake can be measured. Testing various doses of the compound generated ED50's. The assay was performed as follows: 1. Remove food (water ad libitum) at 5:00 pm the evening before the study. 2. Weigh food pellets (3 pellets/cage). 3. Inject animals intraperitoneally with 200 ul of appropriate solution, t=0. 4. Immediately add pre-weighed food to each cage (away from water bottle spout) and allow animals to feed undisturbed. 5. At 30, 60, and 120 minutes, collect and weigh food. 6. Analyze data. Data points represent mean ±sd of n=12.
Twelve mice were injected IP at t=0 for each dose, 0.3, 1, 3, 10, 30, 100, or 300 nmol/kg of AFP-6 (Amylin Pharmaceuticals, Inc.) (n=12/group). Food was introduced immediately after injection and amount consumed measured at t=30, 60, and 120 min.

[2] = plasma ionized calcium in rats; format: in vivo, rat; details: subcutaneous, samples of Example 4
Method: Using the samples obtained from Example 4, ionized calcium was measured in plasma samples obtained from gastric emptying experiments described above, using an ion selective electrode, Ciba/Corning 634 Ca/pH analyzer (Ciba/Corning, Inc., Medfield, Mass.).

adrenomedullin receptor, sequence (Q16602 23-461): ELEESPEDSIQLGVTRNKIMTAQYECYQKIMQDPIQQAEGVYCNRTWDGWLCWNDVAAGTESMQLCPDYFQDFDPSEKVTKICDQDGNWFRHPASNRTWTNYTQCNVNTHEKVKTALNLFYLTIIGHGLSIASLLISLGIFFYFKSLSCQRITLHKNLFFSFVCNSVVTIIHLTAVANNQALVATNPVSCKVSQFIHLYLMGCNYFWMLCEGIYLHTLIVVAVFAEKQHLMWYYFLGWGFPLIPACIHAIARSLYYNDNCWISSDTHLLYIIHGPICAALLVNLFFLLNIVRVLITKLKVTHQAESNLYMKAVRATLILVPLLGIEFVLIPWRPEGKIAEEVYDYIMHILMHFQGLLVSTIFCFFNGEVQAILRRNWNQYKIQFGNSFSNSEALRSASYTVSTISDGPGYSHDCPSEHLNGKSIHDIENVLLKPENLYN
adrenomedullin receptor, sequence (O60895 43-175): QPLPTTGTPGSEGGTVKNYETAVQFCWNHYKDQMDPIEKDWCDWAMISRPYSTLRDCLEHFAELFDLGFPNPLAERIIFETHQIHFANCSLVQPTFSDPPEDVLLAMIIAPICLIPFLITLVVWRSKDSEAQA

## CSCC[C@H](NC(=O)[C@H](CC(C)C)NC(=O)[C@H](CCC(N)=O)NC(=O)[C@H](Cc1c[nH]c2ccccc12)NC(=O)[C@H](CC(C)C)NC(=O)[C@H](CCCNC(=N)N)NC(=O)[C@H](Cc1c[nH]cn1)NC(=O)[C@H](CO)NC(=O)[C@H](CC(C)C)NC(=O)[C@H](CC(N)=O)NC(=O)[C@H](CCC(N)=O)NC(=O)[C@@H](NC(=O)[C@H](CCC(N)=O)NC(=O)[C@@H]1CSSC[C@H](NC(=O)CNC(=O)[C@@H](NC(=O)[C@H](CCCNC(=N)N)NC(=O)[C@H](CC(C)C)NC(=O)[C@H](CC(C)C)NC(=O)[C@H](CCC(N)=O)NC(=O)[C@H](C)NC(=O)[C@H](CCC(N)=O)NC(=O)[C@@H](N)[C@@H](C)O)C(C)C)C(=O)N[C@@H](C(C)C)C(=O)N[C@@H](CC(C)C)C(=O)NCC(=O)N[C@@H]([C@@H](C)O)C(=O)N1)C(C)C)C(=O)NCC(=O)N1CCC[C@H]1C(=O)N[C@@H](C)C(=O)NCC(=O)N[C@@H](CCCNC(=N)N)C(=O)N[C@@H](CCC(N)=O)C(=O)N[C@@H](CC(=O)O)C(=O)N[C@@H](CO)C(=O)N[C@@H](C)C(=O)N1CCC[C@H]1C(=O)N[C@H](C(=O)N[C@@H](CC(=O)O)C(=O)N1CCC[C@H]1C(=O)N[C@@H](CO)C(=O)N[C@@H](CO)C(=O)N1CCC[C@H]1C(=O)N[C@@H](Cc1c[nH]cn1)C(=O)N[C@@H](CO)C(=O)N[C@@H](Cc1ccc(O)cc1)C(N)=O)C(C)C [SEQ ID NO: 1]
Calcitonin receptor
  rank order of potency, T47D cells: calcitonin>amylin >AFP-6=hCGRP alpha>adrenomedullin
Adrenomedullin receptor; HUVECs, 1 μM and 10 nM
  increase of cAMP levels: active in increasing cAMP levels
Adrenomedullin receptor; cAMP, FIG. 9
  rank order of potency in HUVECs: adrenomedullin >AFP-6>>CGRP alpha
[1]
  ED50, inhibition of gastric emptying: 0.049 mg/kg
rats
  profile over all three cardiovascular parameters: profile more amylin-like than adrenomedullin like
Amylin receptors
  rank order of potency, displacement of bound amylin: amylin >CGRP>AFP-6 >>adrenomedullin>calcitonin
NIH/Swiss mice; 1 mg/kg IP, mice
  inhibition of food intake: 91%
NIH/Swiss mice; 60 min time point, 0.3-300 nmol/kg IP, non-linear regression
  ED50, short-term food intake: 19 nmol/kg
NIH/Swiss mice; food intake, 30 min
  FI 30 min ED50: 9 to 14 nmol/kg
NIH/Swiss mice; food intake, 60 min
  FI 60 min ED50: 14 to 19 nmol/kg
[2]
  ED50, decrease of plasma ionized calcium: 0.025 mg/kg
